# Results reported in patent US9353171B2 (The Administrators of the Tulane Educational Fund, priority 2011, dated 2016).
# Bridges are numbered along the chain shown (N, C = ends). Where no end group is shown, it is not given here.
# B1: Maxadilan: 61-amino-acid peptide with two disulfide bridges from salivary glands of the sand fly Lutzomyia longipalpis; conformational analog of PACAP (peptide, listed as Lutzomyia longipalpis)
# chain: CDATCQFRKAIEDCRKKAHHSDVLQTSVQTTATFTSMDTSQLPGSGVFKECMKQKAKEFKA
# modifications: disulfide 1-5; disulfide 14-51 (inferred)
# notes: 61-amino-acid peptide with two disulfide bridges from salivary glands of the sand fly Lutzomyia longipalpis; conformational analog of PACAP
# Experiments:
# [1] = tested on: human renal proximal tubule epithelial cells (HK-2 human kidney cells); experiment: Urografin-induced injury (cytotoxicity) of HK-2 cells, lactate dehydrogenase activity in the culture medium; assay type: cell-based; conditions: for Urografin-induced cell death of human renal proximal tubule epithelial cells: various concentrations added to the medium
# Protocol: (§1) The HK-2 human kidney cells were cultured in Keratinocyte-Serum Free Medium supplemented with recombinant epidermal growth factor and bovine pituitary extract. […] Each value represents the mean plus/minus the standard error of four determinations. **p<0.01 and *p<0.05 compared to the cells treated only with Urografin.
# The HK-2 human kidney cells were cultured in Keratinocyte-Serum Free Medium supplemented with recombinant epidermal growth factor and bovine pituitary extract. […] Each value represents the mean plus/minus the standard error of eight determinations. **p<0.01 and *p<0.05 compared to the cells treated only with Urografin. The ID numbers in the figure correspond to the SEQ ID NO numbers in the Sequence Listing. ID1=PACAP38, ID2=PACAP27, ID4=[D-Ser^2]PACAP38, ID5=[Aib^2]PACAP38, ID6=[D-Ser^2,Lys^38-palmitoyl]PACAP38, ID8=[Ala^22]PACAP38, ID10=[Lys^34]PACAP38, ID38=N-acetyl[Pip^3]PACAP38, ID39=[Pip^3,Ala^14,17,Aib^16,28,Lys^34, D-Lys^38]PACAP38, and ID40=[Pip^3,Ala^15,17,Aib^16,28,Lys^34,D-Lys^38]PACAP38.
# (§2) At the highest dose tested, PACAP38 reduced the cell death caused by Urografin by more than 70%.
# [2] = tested on: human renal proximal tubule epithelial cells (HK-2 human kidney cells); experiment: Iohexol-induced inhibition of proliferation / loss of viable HK-2 cells, MTT conversion; assay type: cell-based; conditions: for loss of viable human renal proximal tubule epithelial cells caused by iohexol: various concentrations
# Protocol: as §1, with “iohexol.” for “Urografin.”
# [3] = tested on: human renal proximal tubule epithelial cells (HK-2 human kidney cells); experiment: Secretion of KIM-1 by HK-2 cells treated with Urografin or iohexol, ELISA of culture medium; assay type: cell-based; conditions: 10^−6 M PACAP38, ELISA (FIG. 5)
# Protocol: The HK-2 human kidney cells were cultured in Keratinocyte-Serum Free Medium supplemented with recombinant epidermal growth factor and bovine pituitary extract. The effects of 10^−6 M PACAP38 on the excretion of KIM-1 were assessed by determining the concentration of KIM-1 in the culture medium with an enzyme-linked immunosorbent assay. Each value represents the mean plus/minus the standard error of three determinations. **p<0.01 and *p<0.05 compared to the cells treated only with Urografin.
# as §2
# [4] = tested on: male homozygous eNOS-deficient mice; experiment: Mouse model of contrast-induced nephropathy (Urografin i.v.), serum and kidney biomarkers; assay type: in vivo; conditions: 72 h
# Protocol: (§3) Male homozygous eNOS-deficient mice were given a single intravenous injection of Urografin at a dose of 1.85 g iodine/kg body weight. The mice were deprived of water for 24 hours before the start of the experiment. Twenty micrograms of PACAP38 were given intraperitoneally 1 hour before the injection of Urografin and an additional dose was given 12 hours later. The control group of mice was injected intravenously with the same volume of saline as for the injections of Urografin and PACAP38 on the same schedule. The mice were euthanized 72 hours after the injection of Urografin. The concentration of cystatin C in serum was determined with an enzyme-linked immunosorbent assay. Each value represents the mean plus/minus the standard error of five or eight determinations. **p<0.01 compared to the group treated with Urografin and saline.
# as §3, with “control” for “control group of”, “mice were” for “mice was”, “Urografin. Quantification” for “Urografin. The concentration”, “of mRNA levels for KIM-1” for “of cystatin C in serum”, “was made by real-time reverse transcriptase polymerase chain reaction analyses.” for “was determined with an enzyme-linked immunosorbent assay.”
# as §3, with “control” for “control group of”, “mice were” for “mice was”, “Urografin. Quantification” for “Urografin. The concentration”, “of mRNA levels for netrin-1” for “of cystatin C in serum”, “was made by real-time reverse transcriptase polymerase chain reaction analyses.” for “was determined with an enzyme-linked immunosorbent assay.”
# as §3, with “control” for “control group of”, “mice were” for “mice was”, “Urografin. Quantification” for “Urografin. The concentration”, “of mRNA levels for TNF-α” for “of cystatin C in serum”, “was made by real-time reverse transcriptase polymerase chain reaction analyses.” for “was determined with an enzyme-linked immunosorbent assay.”, “**p<0.01 and *p<0.05” for “**p<0.01”
# Male homozygous eNOS-deficient mice were given a single intravenous injection of Urografin at a dose of 1.85 g iodine/kg body weight. The mice were deprived of water for 24 hours before the start of the experiment. Twenty micrograms of PACAP38 were given intraperitoneally 1 hour before the injection of Urografin and an additional dose was given 12 hours later. The control mice were injected intravenously with the same volume of saline as for the injections of Urografin and PACAP38 on the same schedule. The mice were euthanized 72 hours after the injection of Urografin. […]
# [5] = rat, in vivo, iv; cited from earlier work
# [6] = target: T1, PAC1 receptor (Homo sapiens, UniProt P41586); conditions: in words; cited from earlier work
# T1 sequence (P41586 21-468): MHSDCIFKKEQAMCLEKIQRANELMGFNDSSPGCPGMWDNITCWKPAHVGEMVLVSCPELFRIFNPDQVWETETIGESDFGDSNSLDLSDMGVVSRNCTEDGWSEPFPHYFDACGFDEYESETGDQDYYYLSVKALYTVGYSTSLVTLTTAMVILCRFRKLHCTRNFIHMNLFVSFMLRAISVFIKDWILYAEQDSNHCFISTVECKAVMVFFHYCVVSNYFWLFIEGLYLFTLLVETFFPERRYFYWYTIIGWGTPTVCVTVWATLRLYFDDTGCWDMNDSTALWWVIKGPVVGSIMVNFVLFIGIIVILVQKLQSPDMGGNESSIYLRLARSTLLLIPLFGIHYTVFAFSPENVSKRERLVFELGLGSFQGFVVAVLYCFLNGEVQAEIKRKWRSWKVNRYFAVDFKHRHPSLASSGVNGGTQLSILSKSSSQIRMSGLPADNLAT
molecule,measurement,setting,value
PACAP38,potency against Urografin-induced cell injury compared with VIP,"[1]; 10^−8 M (p<0.05), 10^−7 M (p<0.01) and 10^−6 M (p<0.01) (FIG. 2)",significantly more potent than VIP
same,reduction of the cell death caused by Urografin,"[1]; highest dose tested, HK-2 cells, LDH in medium (FIG. 2)",more than 70%
same,Urografin-induced cell death of human renal proximal tubule epithelial cells,[1]; LDH in medium (FIG. 2),significant dose-dependent reduction
same,potency as renoprotectant against iohexol compared with VIP,[2]; 10^−7 M and 10^−6 M (FIG. 4),significantly more potent than VIP
same,loss of viable human renal proximal tubule epithelial cells caused by iohexol at the highest dose,"[2]; highest dose tested, MTT (FIG. 4)",almost completely prevented
same,loss of viable human renal proximal tubule epithelial cells caused by iohexol,[2]; MTT (FIG. 4),significant dose-dependent reduction
same,Urografin-induced secretion of KIM-1 into the medium,[3],significantly reduced
same,iohexol-induced secretion of KIM-1 into the medium,[3],significantly reduced
same,Urografin-induced increase in serum levels of cystatin C,"[4]; 20 μg i.p. 1 h before and 12 h after Urografin 1.85 g iodine/kg i.v., ELISA (FIG. 6)",reversed the increases
same,Urografin-induced increase in kidney levels of TNF-α protein,"[4]; 20 μg i.p. 1 h before and 12 h after Urografin, ELISA (FIG. 16)",reversed the increases
same,Urografin-induced increase in kidney levels of TGF-β1 protein,"[4]; 20 μg i.p. 1 h before and 12 h after Urografin, ELISA (FIG. 17)",reversed the increases
same,Urografin-induced increase in kidney levels of MCP-1 protein,"[4]; 20 μg i.p. 1 h before and 12 h after Urografin, ELISA (FIG. 18)",reversed the increases
same,Urografin-induced increase in kidney levels of IFN-γ protein,"[4]; 20 μg i.p. 1 h before and 12 h after Urografin, ELISA (FIG. 19)",reversed the increases
same,Urografin-induced increase in serum levels of creatinine,"[4]; 20 μg i.p. 1 h before and 12 h after Urografin, LC-MS/MS (FIG. 11)",reversed the increases
same,Urografin-induced increase in kidney levels of KIM-1 mRNA,"[4]; 20 μg i.p. 1 h before and 12 h after Urografin, real-time RT-PCR (FIG. 7)",reversed the increases
same,Urografin-induced increase in kidney levels of netrin-1 mRNA,"[4]; 20 μg i.p. 1 h before and 12 h after Urografin, real-time RT-PCR (FIG. 8)",reversed the increases
same,Urografin-induced increase in kidney levels of TNF-α mRNA,"[4]; 20 μg i.p. 1 h before and 12 h after Urografin, real-time RT-PCR (FIG. 9)",reversed the increases
same,Urografin-induced increase in kidney levels of iNOS mRNA,"[4]; 20 μg i.p. 1 h before and 12 h after Urografin, real-time RT-PCR (FIG. 10)",reversed the increases
same,Urografin-induced increase in kidney levels of Nogo-B1 mRNA,"[4]; 20 μg i.p. 1 h before and 12 h after Urografin, real-time RT-PCR (FIG. 12)",reversed the increases
same,Urografin-induced increase in kidney levels of TGF-β1 mRNA,"[4]; 20 μg i.p. 1 h before and 12 h after Urografin, real-time RT-PCR (FIG. 13)",reversed the increases
same,Urografin-induced increase in kidney levels of Nox-4 mRNA,"[4]; 20 μg i.p. 1 h before and 12 h after Urografin, real-time RT-PCR (FIG. 14)",reversed the increases
same,Urografin-induced increase in kidney levels of Nox-2 mRNA,"[4]; 20 μg i.p. 1 h before and 12 h after Urografin, real-time RT-PCR (FIG. 15)",reversed the increases
VIP (HSDAVFTDNYTRLRKQMAVKKYLNSILN-NH2; listed as Homo sapiens),Urografin-induced cell death of human renal proximal tubule epithelial cells,[1]; LDH in medium (FIG. 2),significant dose-dependent reduction
same,loss of viable human renal proximal tubule epithelial cells caused by iohexol,[2]; MTT (FIG. 4),significant dose-dependent reduction
[^125I]-PACAP38: radioiodinated PACAP38 used in a cited rat half-life study,half-life in the bloodstream,[5],5 to 6 min
B1,binding to the PAC1 receptor,[6],high affinity
